Results on three compounds are retold here after patent US20200383905A1 (priority 2015, published 2020).

Data set [1] can be described thus: Example 5: multiple-dose 3-way crossover PK study of two IV regimens vs 100 mg oral Q6h. The note with it: for Cmax: human, plasma, iv, 50 mg, 50 mg IV regimen; for AUCtau 1: first dosing interval. From the text: The term “STD” as used herein means standard deviation. […] The term “Css” means steady-state concentration. The term “Cmax” means maximum concentration. The term “AUC” means area under the curve. […] The term “PIT” means peak to trough.

Data set [2] relates to rats and dogs. The conditions noted are these: repeat-dose; cited from earlier work.
The conditions of data set [3]: oral administration; cited from earlier work.
The conditions of data set [4]: cited from earlier work.
For data set [5] the following is noted: in vivo; cited from earlier work.
For data set [6] the following is noted: mean cumulative doses 449 to 868.3 mg over 24, 36 and 48 h; cited from earlier work.
In data set [7] the test system is experienced opioid abusers. The note with it: tramadol 100 and 200 mg IV, cited from earlier work; for Ratings of feel drug effect compared to placebo / Ratings of liking: morphine 10 and 20 mg IV over 5 minutes; for Ratings of feel drug effect compared to placebo: 10 experienced opioid abusers.
The nature of data set [8]: Observed steady-state PK of oral tramadol Q6h (threshold PK parameters). The note with it: for AUC / Cmax: human, plasma, po.
For data set [9], the system named is animal model. The conditions noted are these: cited from earlier work.
For data set [10], the system named is μ opioid. The note with it: animal model; cited from earlier work.
Data set [11] concerns postoperative pain. The conditions noted are these: IV or IM intermittent injection, dose titrated to pain response; cited from earlier work.
[12] abbreviates: plasma tramadol, 50 mg IV at h 0, 2, 4 then q4h, mean.
Setting [13] is: plasma tramadol, 75 mg IV at h 0, 3, 6 then q6h, mean.
The mark [14] stands for this setting: plasma tramadol, 100 mg oral q6h, mean.
Where [15] appears, read: plasma 0-desmethyltramadol, tramadol 50 mg IV at h 0, 2, 4 then q4h, mean.
The mark [16] stands for this setting: plasma 0-desmethyltramadol, tramadol 75 mg IV at h 0, 3, 6 then q6h, mean.
The mark [17] stands for this setting: plasma 0-desmethyltramadol, tramadol 100 mg oral q6h, mean.
[18] abbreviates: 60 mg oral tramadol dose, by extrapolation.
The mark [19] stands for this setting: 100 mg oral tramadol Q6h, steady-state, geometric mean, observed.
Setting [20] is: 120 mg oral tramadol dose, by extrapolation.

Counter-ions that a name gives are not always drawn. Like-named read-outs stand apart in the source and are kept apart here.

By Cmax is commonly meant the highest concentration seen after dosing. The term AUC denotes the area under the concentration-time curve, a measure of exposure. Read a low AUC as less exposure.

Regarding `COc1cccc([C@]2(O)CCCC[C@H]2CN(C)C)c1` (racemic) [Tramadol, (±)cis-2-[(dimethylamino)methyl]-1-(3-methoxyphenyl) cyclohexanol hydrochloride], the Cmax in data set [1] (Mean Cmax after the first dose, plasma tramadol) is approximately 273 ng/mL; in data set [1] (Mean Cmax after the second dose, plasma tramadol), approximately 451 ng/mL; in data set [1] (Mean Cmax concentration after the third administered dose, plasma tramadol) it was approximately 666 ng/mL; in data set [4] (100 mg p.o.) it was 280 ± 49 ng/mL; in data set [8] (50 mg), 340 ng/mL; in [8] (60 mg), 408 ng/mL. For the same compound, the values for the Cmax in data set [8] (100 mg) and in [8] (120 mg) were 676 ng/mL and 811 ng/mL, respectively. The C48 in data set [1] (setting [12]) turned out to be 448 ng/mL; in [1] (setting [13]), 354 ng/mL; in [1] (setting [14]), 497 ng/mL. In data set [1] (setting [12]), the “Cmax(2-4)” value worked out at 479 ng/mL. In addition, the “P/T Ratio First” value in data set [1] (setting [12]) is 1.4566; in data set [1] (setting [13]), 2.0658; in data set [1] (setting [14]), 1.9824. The “P/T Ratio Last” value in data set [1] (setting [12]) amounted to 1.6370; in data set [1] (setting [13]), 2.3692; in data set [1] (setting [14]), 1.4400. In addition, the “Dose with behavioral/clinical signs and convulsions” value in data set [2] is more than 25 mg/kg/day. In addition, the “Fertility or teratogenic effects” value in data set [3] is given as “no safety concerns with respect to fertility or teratogenic effects”. Besides, the AUC0-24h in [4] (100 mg i.v.) was 3709 ± 977 ng·h/mL; in data set [4] (100 mg p.o.), 2488 ± 774 ng·h/mL. For the same compound, the Vd in [4] (100 mg i.v.) is 203 L; in data set [4] (100 mg p.o.) it was 306 L. In [4] (100 mg i.v.), the t1/2 is recorded as 5.2 h. The “Distribution half-life, initial phase” value in [4] (IV administration) is 0.31 ± 0.17 h. Also, the “Half-life of slower distribution phase” value in data set [4] (IV administration) is 1.7 ± 0.4 h. Moreover, in data set [4] (oral, continuous dosing (Liao 1992)), the “Absolute bioavailability with continuous dosing” value is listed as 90-100%. In data set [5], the “Time to reach steady-state” value was 42 to 48 h. The Serious adverse effects result in [6] is “no serious adverse effects were observed”. Besides, the “Ratings of feel drug effect compared to placebo” value in [7] is “significantly increased ratings”. Also, the Ratings of liking result in [7] was “neither dose of tramadol increased ratings”. Also, the values for the exposure (AUC) in [8] (50 mg), in data set [8] (100 mg) and in data set [8] (120 mg) were 1640 ng·h/mL, 3230 ng·h/mL and 3880 ng·h/mL, respectively.

On to `CN(C)C[C@H]1CCCC[C@]1(O)c1cccc(O)c1` [M1, 0-desmethyltramadol], for which the “AUCtau 1” value in data set [1] (setting [15]) came to 39.93 ng·h/mL; in [1] (setting [16]), 108.3 ng·h/mL; in data set [1] (setting [17]), 272.1 ng·h/mL. The compound further came in with an AUCtau n in [1] (plasma 0-desmethyltramadol, tramadol 50 mg IV at h 0, 2, 4 then q4h, last dosing interval, mean) of 355.6 ng·h/mL. Further, the C48 in data set [1] (setting [15]) is 81.7 ng/mL; in data set [1] (setting [16]), 75.9 ng/mL; in data set [1] (setting [17]), 111 ng/mL. The “Cmax(42-48)” value in data set [1] (plasma 0-desmethyltramadol, tramadol 100 mg oral q6h, steady-state, mean) is “about 146 ng/mL”. Further, the “Potency in producing analgesia, times more potent than the parent compound” value in data set [9] is 6 times. In addition, the “Potency in μ opioid binding, times more potent than the parent compound” value in data set [10] is on record as 200 times. Besides, the “M1 AUC6” value in data set [8] (50 mg oral tramadol dose) was 491 ng·h/mL; in data set [8] (setting [18]), 589 ng·h/mL; in data set [8] (setting [19]), 668 ng·h/mL; in data set [8] (setting [20]), 802 ng·h/mL. The “M1 Cmax” value in [8] (50 mg oral tramadol dose) is listed as 96 ng/mL; in [8] (setting [18]), 115 ng/mL; in [8] (setting [19]), 125 ng/mL; in data set [8] (setting [20]), 150 ng/mL.

Consider `CN1CC[C@]23c4c5ccc(O)c4O[C@H]2[C@@H](O)C=C[C@H]3[C@H]1C5` [morphine], for which, in data set [11], the “Reduction of pain intensity after 4 to 6 hours” value is 69.8%. Besides, the “Ratings on the ARCI-MBG scale” value in data set [7] (morphine 20 mg IV over 5 minutes) is given as “increased ratings on the ARCI-MBG scale”. For the same compound, in [7], the “Ratings of feel drug effect compared to placebo” value is listed as “significantly increased ratings” and the Ratings of liking entry was “significantly increased ratings”.
